Test results from US7576091B2, “Thiazolo-, oxazalo and imidazolo-quinazoline compounds capable of inhibiting protein kinases” (Cyclacel Limited, priority 2003, dated 2009).

The compounds below were run against Cyclin B - CDK1 (Homo sapiens, UniProt P06493) (assay: Cyclin B - CDK1 kinase inhibition assay). Details: [ATP] = 100 μM.
Assay type: biochemical
Description: (§1) Compounds were tested in cyclin-CDK kinase assays and cytotoxicity assays against human tumour cell lines (72-h MTT assay) as previously described.

Cyclin B - CDK1, sequence (P06493 whole entry): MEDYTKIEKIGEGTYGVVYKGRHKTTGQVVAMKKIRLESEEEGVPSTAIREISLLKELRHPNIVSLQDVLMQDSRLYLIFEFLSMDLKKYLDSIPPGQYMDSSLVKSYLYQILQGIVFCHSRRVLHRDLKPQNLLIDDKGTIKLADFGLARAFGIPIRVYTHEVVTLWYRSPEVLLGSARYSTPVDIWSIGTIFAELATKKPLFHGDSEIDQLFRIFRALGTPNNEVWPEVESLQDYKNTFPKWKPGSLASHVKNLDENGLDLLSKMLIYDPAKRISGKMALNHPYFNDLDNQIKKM
Cyclin B - CDK1, sequence (P14635 whole entry partner): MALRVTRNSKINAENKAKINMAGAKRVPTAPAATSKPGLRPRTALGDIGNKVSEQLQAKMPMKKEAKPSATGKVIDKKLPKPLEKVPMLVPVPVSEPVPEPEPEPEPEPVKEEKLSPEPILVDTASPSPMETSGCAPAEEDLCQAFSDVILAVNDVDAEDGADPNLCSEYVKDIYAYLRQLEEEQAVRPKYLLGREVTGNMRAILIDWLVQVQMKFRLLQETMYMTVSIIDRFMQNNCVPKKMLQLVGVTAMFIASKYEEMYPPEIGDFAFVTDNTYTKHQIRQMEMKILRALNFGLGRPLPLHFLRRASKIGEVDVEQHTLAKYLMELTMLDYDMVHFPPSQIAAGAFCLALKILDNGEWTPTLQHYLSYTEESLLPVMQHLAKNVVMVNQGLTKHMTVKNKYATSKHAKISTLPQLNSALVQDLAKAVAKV

Point of comparison: `Nc1nc2c(s1)-c1nc(Nc3cccc([N+](=O)[O-])c3)ncc1CC2` [Cpd 14, N^8-(3-Nitro-phenyl)-4,5-dihydro-thiazolo[4,5-h]quinazoline-2,8-diamine], IC50 54 ± 16 nM. Against it:
- Cc1nc2c(s1)-c1nc(Nc3cccc(O)c3)ncc1CC2 [Cpd 3, 3-(2-Methyl-4,5-dihydro-thiazolo[4,5-h]quinazolin-8-ylamino)-phenol] — 20-fold higher, 1100 ± 400 nM
- Cc1nc2c(s1)-c1nc(Nc3ccc(O)cc3)ncc1CC2 [Cpd 5, 4-(2-Methyl-4,5-dihydro-thiazolo[4,5-h]quinazolin-8-ylamino)-phenol] — 11-fold higher, 600 ± 120 nM
- Cc1nc2ccc3cnc(Nc4ccccc4)nc3c2s1 [Cpd 12, (2-Methyl-thiazolo[4,5-h]quinazolin-8-yl)-phenyl-amine] — 96-fold higher, 5200 ± 1300 nM
- COc1ccc(Nc2ncc3c(n2)-c2sc(C)nc2CC3)cn1 [Cpd 8, (6-Methoxy-pyridin-3-yl)-(2-methyl-4,5-dihydro-thiazolo[4,5-h]quinazolin-8-yl)-amine] — within error, 230 ± 190 nM
- Cc1nc2c(s1)-c1nc(Nc3ccc(Cl)nc3)ncc1CC2 [Cpd 7, (6-Chloro-pyridin-3-yl)-(2-methyl-4,5-dihydro-thiazolo[4,5-h]quinazolin-8-yl)-amine] — within error, 58 ± 46 nM
- Cc1nc2c(s1)-c1nc(Nc3ccc(N4CCOCC4)cc3)ncc1CC2 [Cpd 4, (2-Methyl-4,5-dihydro-thiazolo[4,5-h]quinazolin-8-yl)-(4-morpholin-4-yl-phenyl)-amine] — 830-fold higher, 45000 ± 25000 nM

The compounds below were run against Cyclin A - CDK2 (Homo sapiens, UniProt P24941) (assay: Cyclin A - CDK2 kinase inhibition assay). Details: [ATP] = 100 μM.
Assay type: biochemical
Description: as §1

Point of comparison: `Cc1nc2ccc3cnc(Nc4ccccc4)nc3c2s1` [Cpd 12, (2-Methyl-thiazolo[4,5-h]quinazolin-8-yl)-phenyl-amine], IC50 4300 ± 2500 nM. Against it:
- Cc1nc2c(s1)-c1nc(Nc3cccc(O)c3)ncc1CC2 [Cpd 3, 3-(2-Methyl-4,5-dihydro-thiazolo[4,5-h]quinazolin-8-ylamino)-phenol] — 2200-fold lower, 2 ± 1 nM
- Cc1nc2c(s1)-c1nc(Nc3ccc(O)cc3)ncc1CC2 [Cpd 5, 4-(2-Methyl-4,5-dihydro-thiazolo[4,5-h]quinazolin-8-ylamino)-phenol] — 480-fold lower, 9 ± 3 nM
- COc1ccc(Nc2ncc3c(n2)-c2sc(C)nc2CC3)cn1 [Cpd 8, (6-Methoxy-pyridin-3-yl)-(2-methyl-4,5-dihydro-thiazolo[4,5-h]quinazolin-8-yl)-amine] — 310-fold lower, 14 ± 12 nM
- Cc1nc2c(s1)-c1nc(Nc3ccc(Cl)nc3)ncc1CC2 [Cpd 7, (6-Chloro-pyridin-3-yl)-(2-methyl-4,5-dihydro-thiazolo[4,5-h]quinazolin-8-yl)-amine] — 310-fold lower, 14 ± 6 nM
- Cc1nc2c(s1)-c1nc(Nc3ccc(N4CCOCC4)cc3)ncc1CC2 [Cpd 4, (2-Methyl-4,5-dihydro-thiazolo[4,5-h]quinazolin-8-yl)-(4-morpholin-4-yl-phenyl)-amine] — 4.7-fold lower, 910 ± 590 nM
- Nc1nc2c(s1)-c1nc(Nc3cccc([N+](=O)[O-])c3)ncc1CC2 [Cpd 14, N^8-(3-Nitro-phenyl)-4,5-dihydro-thiazolo[4,5-h]quinazoline-2,8-diamine] — 200-fold lower, 22 ± 10 nM

Each compound was assayed against Cyclin E - CDK2 (Homo sapiens, UniProt P24941) (assay: Cyclin E - CDK2 kinase inhibition assay). Details: [ATP] = 100 μM.
Assay type: biochemical
Description: as §1

Point of comparison: `Cc1nc2c(s1)-c1nc(Nc3ccc(Cl)nc3)ncc1CC2` [Cpd 7, (6-Chloro-pyridin-3-yl)-(2-methyl-4,5-dihydro-thiazolo[4,5-h]quinazolin-8-yl)-amine], IC50 49 ± 2 nM. Against it:
- Cc1nc2c(s1)-c1nc(Nc3cccc(O)c3)ncc1CC2 [Cpd 3, 3-(2-Methyl-4,5-dihydro-thiazolo[4,5-h]quinazolin-8-ylamino)-phenol] — 2.5-fold lower, 20 ± 10 nM
- Cc1nc2c(s1)-c1nc(Nc3ccc(O)cc3)ncc1CC2 [Cpd 5, 4-(2-Methyl-4,5-dihydro-thiazolo[4,5-h]quinazolin-8-ylamino)-phenol] — 24-fold lower, 2 ± 1 nM
- Cc1nc2ccc3cnc(Nc4ccccc4)nc3c2s1 [Cpd 12, (2-Methyl-thiazolo[4,5-h]quinazolin-8-yl)-phenyl-amine] — within error, 48 ± 13 nM
- COc1ccc(Nc2ncc3c(n2)-c2sc(C)nc2CC3)cn1 [Cpd 8, (6-Methoxy-pyridin-3-yl)-(2-methyl-4,5-dihydro-thiazolo[4,5-h]quinazolin-8-yl)-amine] — 1.8-fold higher, 89 ± 16 nM
- Cc1nc2c(s1)-c1nc(Nc3ccc(N4CCOCC4)cc3)ncc1CC2 [Cpd 4, (2-Methyl-4,5-dihydro-thiazolo[4,5-h]quinazolin-8-yl)-(4-morpholin-4-yl-phenyl)-amine] — 8.2-fold higher, 400 ± 100 nM
- Nc1nc2c(s1)-c1nc(Nc3cccc([N+](=O)[O-])c3)ncc1CC2 [Cpd 14, N^8-(3-Nitro-phenyl)-4,5-dihydro-thiazolo[4,5-h]quinazoline-2,8-diamine] — 49-fold lower, 1 ± 1 nM

These compounds were tested against Cyclin D1 - CDK4 (Homo sapiens, UniProt P11802) (assay: Cyclin D1 - CDK4 kinase inhibition assay). Details: [ATP] = 100 μM.
Assay type: biochemical
Description: as §1

Cyclin D1 - CDK4, sequence (P11802 whole entry): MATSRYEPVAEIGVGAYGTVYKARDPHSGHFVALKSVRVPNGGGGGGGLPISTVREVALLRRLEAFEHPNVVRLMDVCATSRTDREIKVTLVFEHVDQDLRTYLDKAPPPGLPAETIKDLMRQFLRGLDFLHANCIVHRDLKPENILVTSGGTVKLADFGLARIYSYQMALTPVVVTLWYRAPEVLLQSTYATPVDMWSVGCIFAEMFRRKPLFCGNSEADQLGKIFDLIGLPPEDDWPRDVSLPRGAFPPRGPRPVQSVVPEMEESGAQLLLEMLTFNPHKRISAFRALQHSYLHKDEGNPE
Cyclin D1 - CDK4, sequence (P24385 whole entry partner): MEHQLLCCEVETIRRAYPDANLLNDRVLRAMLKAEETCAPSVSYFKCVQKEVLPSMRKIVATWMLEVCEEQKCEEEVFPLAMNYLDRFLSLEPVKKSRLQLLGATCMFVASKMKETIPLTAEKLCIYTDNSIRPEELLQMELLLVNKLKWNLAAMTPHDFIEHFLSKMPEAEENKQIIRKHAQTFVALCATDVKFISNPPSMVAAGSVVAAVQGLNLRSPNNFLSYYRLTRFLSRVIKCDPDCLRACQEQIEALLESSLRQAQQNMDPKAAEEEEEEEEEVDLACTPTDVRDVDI

Point of comparison: `Cc1nc2c(s1)-c1nc(Nc3ccc(Cl)nc3)ncc1CC2` [Cpd 7, (6-Chloro-pyridin-3-yl)-(2-methyl-4,5-dihydro-thiazolo[4,5-h]quinazolin-8-yl)-amine], IC50 75 nM. Against it:
- Cc1nc2c(s1)-c1nc(Nc3cccc(O)c3)ncc1CC2 [Cpd 3, 3-(2-Methyl-4,5-dihydro-thiazolo[4,5-h]quinazolin-8-ylamino)-phenol] — 15-fold higher, 1100 ± 700 nM
- Cc1nc2c(s1)-c1nc(Nc3ccc(O)cc3)ncc1CC2 [Cpd 5, 4-(2-Methyl-4,5-dihydro-thiazolo[4,5-h]quinazolin-8-ylamino)-phenol] — 13-fold higher, 1000 nM
- Cc1nc2ccc3cnc(Nc4ccccc4)nc3c2s1 [Cpd 12, (2-Methyl-thiazolo[4,5-h]quinazolin-8-yl)-phenyl-amine] — 67-fold higher, 5000 ± 4000 nM
- COc1ccc(Nc2ncc3c(n2)-c2sc(C)nc2CC3)cn1 [Cpd 8, (6-Methoxy-pyridin-3-yl)-(2-methyl-4,5-dihydro-thiazolo[4,5-h]quinazolin-8-yl)-amine] — within error, 220 ± 190 nM
- Cc1nc2c(s1)-c1nc(Nc3ccc(N4CCOCC4)cc3)ncc1CC2 [Cpd 4, (2-Methyl-4,5-dihydro-thiazolo[4,5-h]quinazolin-8-yl)-(4-morpholin-4-yl-phenyl)-amine] — higher, > 100000 nM
- Nc1nc2c(s1)-c1nc(Nc3cccc([N+](=O)[O-])c3)ncc1CC2 [Cpd 14, N^8-(3-Nitro-phenyl)-4,5-dihydro-thiazolo[4,5-h]quinazoline-2,8-diamine] — 3.3-fold higher, 250 ± 120 nM

The compounds below were run against Cyclin H - CDK7 (Homo sapiens, UniProt P50613) (assay: Cyclin H - CDK7 kinase inhibition assay). Details: [ATP] = 100 μM.
Assay type: biochemical
Description: as §1

Cyclin H - CDK7, sequence (P50613 whole entry): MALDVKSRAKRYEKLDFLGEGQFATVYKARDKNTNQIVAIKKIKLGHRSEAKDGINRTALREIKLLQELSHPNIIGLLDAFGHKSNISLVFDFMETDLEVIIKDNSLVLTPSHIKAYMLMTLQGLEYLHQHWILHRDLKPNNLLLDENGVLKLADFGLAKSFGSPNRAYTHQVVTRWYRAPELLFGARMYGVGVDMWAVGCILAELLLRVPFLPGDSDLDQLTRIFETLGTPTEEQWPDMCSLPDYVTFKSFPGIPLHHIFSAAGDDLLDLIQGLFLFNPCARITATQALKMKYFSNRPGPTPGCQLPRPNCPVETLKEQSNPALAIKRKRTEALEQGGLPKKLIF
Cyclin H - CDK7, sequence (P51946 whole entry partner): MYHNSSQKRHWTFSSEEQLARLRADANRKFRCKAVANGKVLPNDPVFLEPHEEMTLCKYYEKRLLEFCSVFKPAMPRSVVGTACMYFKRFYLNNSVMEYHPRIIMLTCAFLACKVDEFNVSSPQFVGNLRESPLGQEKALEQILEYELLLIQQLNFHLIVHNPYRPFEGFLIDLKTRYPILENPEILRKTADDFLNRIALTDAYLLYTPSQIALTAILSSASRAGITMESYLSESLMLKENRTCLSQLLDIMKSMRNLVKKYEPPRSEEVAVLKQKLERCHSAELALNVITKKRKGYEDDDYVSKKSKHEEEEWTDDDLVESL

Point of comparison: `Cc1nc2c(s1)-c1nc(Nc3cccc(O)c3)ncc1CC2` [Cpd 3, 3-(2-Methyl-4,5-dihydro-thiazolo[4,5-h]quinazolin-8-ylamino)-phenol], IC50 110 ± 30 nM. Against it:
- Cc1nc2c(s1)-c1nc(Nc3ccc(O)cc3)ncc1CC2 [Cpd 5, 4-(2-Methyl-4,5-dihydro-thiazolo[4,5-h]quinazolin-8-ylamino)-phenol] — 5.8-fold higher, 640 ± 230 nM
- Cc1nc2ccc3cnc(Nc4ccccc4)nc3c2s1 [Cpd 12, (2-Methyl-thiazolo[4,5-h]quinazolin-8-yl)-phenyl-amine] — higher, > 20000 nM
- COc1ccc(Nc2ncc3c(n2)-c2sc(C)nc2CC3)cn1 [Cpd 8, (6-Methoxy-pyridin-3-yl)-(2-methyl-4,5-dihydro-thiazolo[4,5-h]quinazolin-8-yl)-amine] — 21-fold higher, 2300 ± 400 nM
- Cc1nc2c(s1)-c1nc(Nc3ccc(Cl)nc3)ncc1CC2 [Cpd 7, (6-Chloro-pyridin-3-yl)-(2-methyl-4,5-dihydro-thiazolo[4,5-h]quinazolin-8-yl)-amine] — 25-fold higher, 2800 ± 600 nM
- Cc1nc2c(s1)-c1nc(Nc3ccc(N4CCOCC4)cc3)ncc1CC2 [Cpd 4, (2-Methyl-4,5-dihydro-thiazolo[4,5-h]quinazolin-8-yl)-(4-morpholin-4-yl-phenyl)-amine] — 20-fold higher, 2200 ± 500 nM

The compounds below were run against Cyclin T - CDK9 (Homo sapiens, UniProt P50750) (assay: Cyclin T - CDK9 kinase inhibition assay). Details: [ATP] = 100 μM.
Assay type: biochemical
Description: as §1

Cyclin T - CDK9, sequence (P50750 whole entry): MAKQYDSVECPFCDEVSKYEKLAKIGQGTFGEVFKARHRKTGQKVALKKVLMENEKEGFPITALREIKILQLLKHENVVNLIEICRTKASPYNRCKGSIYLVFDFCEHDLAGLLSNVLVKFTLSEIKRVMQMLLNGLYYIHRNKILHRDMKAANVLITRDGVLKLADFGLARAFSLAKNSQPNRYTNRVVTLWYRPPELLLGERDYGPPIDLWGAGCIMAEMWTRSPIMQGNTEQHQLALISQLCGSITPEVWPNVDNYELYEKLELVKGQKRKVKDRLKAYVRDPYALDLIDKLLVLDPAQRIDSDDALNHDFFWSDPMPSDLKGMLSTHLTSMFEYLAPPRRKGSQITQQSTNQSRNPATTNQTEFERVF
Cyclin T - CDK9, sequence (O60563 whole entry partner): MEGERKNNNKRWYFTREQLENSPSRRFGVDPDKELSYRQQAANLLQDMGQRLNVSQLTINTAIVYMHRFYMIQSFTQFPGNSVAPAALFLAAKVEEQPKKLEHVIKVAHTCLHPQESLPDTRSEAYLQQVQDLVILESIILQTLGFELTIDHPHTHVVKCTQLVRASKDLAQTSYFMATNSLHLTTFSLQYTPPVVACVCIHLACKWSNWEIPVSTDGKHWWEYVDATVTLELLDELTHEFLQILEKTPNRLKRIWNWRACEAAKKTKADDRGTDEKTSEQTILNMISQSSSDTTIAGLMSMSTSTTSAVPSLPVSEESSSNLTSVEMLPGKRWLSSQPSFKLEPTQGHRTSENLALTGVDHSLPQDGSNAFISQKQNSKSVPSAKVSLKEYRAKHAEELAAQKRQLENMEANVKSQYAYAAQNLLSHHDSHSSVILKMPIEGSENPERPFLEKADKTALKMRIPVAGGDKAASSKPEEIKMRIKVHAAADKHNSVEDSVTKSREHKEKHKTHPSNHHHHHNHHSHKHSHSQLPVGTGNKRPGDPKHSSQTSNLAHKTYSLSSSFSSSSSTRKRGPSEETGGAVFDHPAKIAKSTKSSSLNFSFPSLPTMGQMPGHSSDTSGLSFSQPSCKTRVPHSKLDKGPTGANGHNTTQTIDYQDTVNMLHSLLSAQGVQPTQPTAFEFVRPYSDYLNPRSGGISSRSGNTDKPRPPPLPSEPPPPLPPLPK

Point of comparison: `COc1ccc(Nc2ncc3c(n2)-c2sc(C)nc2CC3)cn1` [Cpd 8, (6-Methoxy-pyridin-3-yl)-(2-methyl-4,5-dihydro-thiazolo[4,5-h]quinazolin-8-yl)-amine], IC50 3300 ± 1600 nM. Against it:
- Cc1nc2c(s1)-c1nc(Nc3cccc(O)c3)ncc1CC2 [Cpd 3, 3-(2-Methyl-4,5-dihydro-thiazolo[4,5-h]quinazolin-8-ylamino)-phenol] — 250-fold lower, 13 nM
- Cc1nc2c(s1)-c1nc(Nc3ccc(O)cc3)ncc1CC2 [Cpd 5, 4-(2-Methyl-4,5-dihydro-thiazolo[4,5-h]quinazolin-8-ylamino)-phenol] — within error, 1600 ± 800 nM
- Cc1nc2c(s1)-c1nc(Nc3ccc(Cl)nc3)ncc1CC2 [Cpd 7, (6-Chloro-pyridin-3-yl)-(2-methyl-4,5-dihydro-thiazolo[4,5-h]quinazolin-8-yl)-amine] — within error, 4100 ± 1700 nM
- Cc1nc2c(s1)-c1nc(Nc3ccc(N4CCOCC4)cc3)ncc1CC2 [Cpd 4, (2-Methyl-4,5-dihydro-thiazolo[4,5-h]quinazolin-8-yl)-(4-morpholin-4-yl-phenyl)-amine] — 6.3-fold lower, 520 ± 60 nM

These compounds were tested on A549 (assay: 72-h MTT cytotoxicity assay, A549). Details: A549 human tumour cell line.
Assay type: cell-based
Description: as §1

Point of comparison: `Cc1nc2c(s1)-c1nc(Nc3ccc(N4CCOCC4)cc3)ncc1CC2` [Cpd 4, (2-Methyl-4,5-dihydro-thiazolo[4,5-h]quinazolin-8-yl)-(4-morpholin-4-yl-phenyl)-amine], IC50 3500 ± 1400 nM. Against it:
- Cc1nc2c(s1)-c1nc(Nc3cccc(O)c3)ncc1CC2 [Cpd 3, 3-(2-Methyl-4,5-dihydro-thiazolo[4,5-h]quinazolin-8-ylamino)-phenol] — within error, 2500 ± 1200 nM
- Cc1nc2c(s1)-c1nc(Nc3ccc(O)cc3)ncc1CC2 [Cpd 5, 4-(2-Methyl-4,5-dihydro-thiazolo[4,5-h]quinazolin-8-ylamino)-phenol] — within error, 4200 ± 1200 nM
- COc1ccc(Nc2ncc3c(n2)-c2sc(C)nc2CC3)cn1 [Cpd 8, (6-Methoxy-pyridin-3-yl)-(2-methyl-4,5-dihydro-thiazolo[4,5-h]quinazolin-8-yl)-amine] — within error, 6000 ± 5100 nM
- Cc1nc2c(s1)-c1nc(Nc3ccc(Cl)nc3)ncc1CC2 [Cpd 7, (6-Chloro-pyridin-3-yl)-(2-methyl-4,5-dihydro-thiazolo[4,5-h]quinazolin-8-yl)-amine] — within error, 3300 ± 300 nM

The compounds below were run on HT29 (assay: 72-h MTT cytotoxicity assay, HT29). Details: HT-29, HT29 human tumour cell line.
Assay type: cell-based
Description: as §1

Point of comparison: `Cc1nc2c(s1)-c1nc(Nc3cccc(O)c3)ncc1CC2` [Cpd 3, 3-(2-Methyl-4,5-dihydro-thiazolo[4,5-h]quinazolin-8-ylamino)-phenol], IC50 9400 ± 5600 nM. Against it:
- Cc1nc2c(s1)-c1nc(Nc3ccc(O)cc3)ncc1CC2 [Cpd 5, 4-(2-Methyl-4,5-dihydro-thiazolo[4,5-h]quinazolin-8-ylamino)-phenol] — within error, 9900 ± 1200 nM
- COc1ccc(Nc2ncc3c(n2)-c2sc(C)nc2CC3)cn1 [Cpd 8, (6-Methoxy-pyridin-3-yl)-(2-methyl-4,5-dihydro-thiazolo[4,5-h]quinazolin-8-yl)-amine] — within error, 4700 ± 3800 nM
- Cc1nc2c(s1)-c1nc(Nc3ccc(Cl)nc3)ncc1CC2 [Cpd 7, (6-Chloro-pyridin-3-yl)-(2-methyl-4,5-dihydro-thiazolo[4,5-h]quinazolin-8-yl)-amine] — within error, 4000 ± 100 nM
- Cc1nc2c(s1)-c1nc(Nc3ccc(N4CCOCC4)cc3)ncc1CC2 [Cpd 4, (2-Methyl-4,5-dihydro-thiazolo[4,5-h]quinazolin-8-yl)-(4-morpholin-4-yl-phenyl)-amine] — within error, 2100 ± 2000 nM

Each compound was assayed on Saos-2 (assay: 72-h MTT cytotoxicity assay, Saos-2). Details: Saos-2 human tumour cell line.
Assay type: cell-based
Description: as §1

Point of comparison: `COc1ccc(Nc2ncc3c(n2)-c2sc(C)nc2CC3)cn1` [Cpd 8, (6-Methoxy-pyridin-3-yl)-(2-methyl-4,5-dihydro-thiazolo[4,5-h]quinazolin-8-yl)-amine], IC50 5000 ± 2700 nM. Against it:
- Cc1nc2c(s1)-c1nc(Nc3cccc(O)c3)ncc1CC2 [Cpd 3, 3-(2-Methyl-4,5-dihydro-thiazolo[4,5-h]quinazolin-8-ylamino)-phenol] — within error, 2300 ± 1800 nM
- Cc1nc2c(s1)-c1nc(Nc3ccc(O)cc3)ncc1CC2 [Cpd 5, 4-(2-Methyl-4,5-dihydro-thiazolo[4,5-h]quinazolin-8-ylamino)-phenol] — within error, 6600 ± 5800 nM
- Cc1nc2c(s1)-c1nc(Nc3ccc(Cl)nc3)ncc1CC2 [Cpd 7, (6-Chloro-pyridin-3-yl)-(2-methyl-4,5-dihydro-thiazolo[4,5-h]quinazolin-8-yl)-amine] — within error, 4900 ± 3400 nM
- Cc1nc2c(s1)-c1nc(Nc3ccc(N4CCOCC4)cc3)ncc1CC2 [Cpd 4, (2-Methyl-4,5-dihydro-thiazolo[4,5-h]quinazolin-8-yl)-(4-morpholin-4-yl-phenyl)-amine] — the same, 5000 ± 800 nM
